US10072025B2, “Ethyl N-boc piperidinyl pyrazolo pyridones as Janus kinase inhibitors” (Merck Sharp & Dohme Corp., priority 2014, dated 2018)

What was measured:
[1] = target: JAK1 (Homo sapiens (Human), UniProt P23458); assay: Jak Biochemical HTRF Assay (JAK1); settings: recombinant purified GST-tagged catalytic domain; HTRF; [ATP] 31.8 μM; [E] 1.405 nM
[2] = target: JAK2 (Homo sapiens (Human), UniProt O60674); assay: Jak Biochemical HTRF Assay (JAK2); settings: recombinant purified GST-tagged catalytic domain, [ATP] 8.5 μM, [E] 0.052 nM
Chain of JAK2 (O60674 849-1124): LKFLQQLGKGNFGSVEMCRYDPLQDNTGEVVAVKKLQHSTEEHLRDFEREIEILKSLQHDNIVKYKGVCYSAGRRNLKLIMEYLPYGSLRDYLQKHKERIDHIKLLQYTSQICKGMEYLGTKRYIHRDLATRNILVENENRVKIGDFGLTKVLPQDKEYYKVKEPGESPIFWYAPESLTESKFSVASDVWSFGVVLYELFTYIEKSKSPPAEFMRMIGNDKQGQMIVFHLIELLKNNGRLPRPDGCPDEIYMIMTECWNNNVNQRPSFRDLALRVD

Chain of JAK1 (P23458 875-1153): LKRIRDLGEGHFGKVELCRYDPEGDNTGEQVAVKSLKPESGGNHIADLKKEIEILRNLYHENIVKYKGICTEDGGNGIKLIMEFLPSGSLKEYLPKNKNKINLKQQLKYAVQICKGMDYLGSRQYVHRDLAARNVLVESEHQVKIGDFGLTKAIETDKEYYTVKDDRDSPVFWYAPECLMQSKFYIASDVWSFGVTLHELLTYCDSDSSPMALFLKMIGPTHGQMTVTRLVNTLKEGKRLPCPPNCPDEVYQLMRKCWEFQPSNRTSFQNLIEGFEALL

| SMILES | IC50 [1] [nM] | IC50 [2] [nM] |
| --- | --- | --- |
| CCC1(n2nc(Nc3ccc(C(=O)N4CCOC(C)(C)C4)c(C)c3)c3c(=O)[nH]ccc32)CCN(C(=O)OC(C)(C)C)CC1 [Example 3-2, tert-butyl 4-[3-({4-[(2,2-dimethylmorpholin-4-yl)carbonyl]-3-methylphenyl}amino)-4-oxo-4,5-dihydro-1H-pyrazolo[4,3-c]pyridin-1-yl]-4-ethylpiperidine-1-carboxylate] | 0.61 | 0.75 |
| CCC1(n2nc(Nc3cccc(CC#N)c3)c3c(=O)[nH]ccc32)CCN(C(=O)OC(C)(C)C)CC1 [Example 2-17, tert-butyl 4-(3-((3-(cyanomethyl)phenyl)amino)-4-oxo-4,5-dihydro-1H-pyrazolo [4,3-c]pyridin-1-yl)-4-ethylpiperidine-1-carboxylate] | 0.53 | 3.37 |
| CCC1(n2nc(Nc3ccc(C4CCN(CC(F)(F)F)CC4)cc3)c3c(=O)[nH]ccc32)CCN(C(=O)OC(C)(C)C)CC1 [Example 2-3, tert-butyl 4-ethyl-4-(4-oxo-3-(4-(1-(2,2,2-trifluoroethyl)piperidin-4-yl)phenylamino)-4,5-dihydropyrazolo [4,3-c]pyridin-1-yl) piperidine-1-carboxylate] | 10.2 | 71.3 |
| CCC1(n2nc(Nc3ccc([C@@]4(C(F)(F)F)CCCN4)cc3)c3c(=O)[nH]ccc32)CCN(C(=O)OC(C)(C)C)CC1 (single isomer, unassigned) [Example 2-34, (R or S)-tert-butyl 4-ethyl-4-(4-oxo-3-(4-(2-(trifluoromethyl)pyrrolidin-2-yl)phenylamino)-4,5-dihydropyrazolo[4,3-c]pyridin-1-yl) piperidine-1-carboxylate] | 2.5 | 2.5 |

Next, values leading:

| IC50 [1] [nM] | IC50 [2] [nM] | SMILES |
| --- | --- | --- |
| 0.54 | 0.51 | CCC1(n2nc(Nc3ccc(C(=O)N4CCOC[C@H]4C)c(C)c3)c3c(=O)[nH]ccc32)CCN(C(=O)OC(C)(C)C)CC1 [Example 2-28, (R)-tert-butyl-4-ethyl-4-(3-(3-methyl-4-(3-methylmorpholine-4-carbonyl)phenylamino)-4-oxo-4,5-dihydropyrazolo[4,3-c]pyridin-1-yl) piperidine-1-carboxylate] |
| 3.21 | 3.16 | CCC1(n2nc(Nc3ccc4c(c3)CN(C3(C)CCC(F)(F)CC3)C4=O)c3c(=O)[nH]ccc32)CCN(C(=O)OC(C)(C)C)CC1 [Example 2-2, tert-butyl 4-(3-(2-(4,4-difluoro-1-methylcyclohexyl)-1-oxoisoindolin-5-ylamino)-4-oxo-4,5-dihydropyrazolo[4,3-c]pyridin-1-yl)-4-ethylpiperidine-1-carboxylate] |
| 0.54 | 0.6 | CCC1(n2nc(Nc3ccc4c(c3)CN(C3CCOCC3)S4(=O)=O)c3c(=O)[nH]ccc32)CCN(C(=O)OC(C)(C)C)CC1 [Example 2-5, tert-butyl 4-ethyl-4-(3-{[2-(oxan-4-yl)-1,1-dioxo-2,3-dihydro-1,2-benzothiazol-5-yl]amino}-4-oxo-1H,4H,5H-pyrazolo [4,3-c]pyridin-1-yl) piperidine-1-carboxylate] |
| 0.73 | 1.21 | CCC1(n2nc(Nc3ccc(C(=O)N4CCOCC4(C)C)c(C)c3)c3c(=O)[nH]ccc32)CCN(C(=O)OC(C)(C)C)CC1 [Example 3-5, tert-butyl 4-[3-({4-[(3,3-dimethylmorpholin-4-yl)carbonyl]-3-methylphenyl}amino)-4-oxo-4,5-dihydro-1H-pyrazolo[4,3-c]pyridin-1-yl]-4-ethylpiperidine-1-carboxylate] |
| 0.84 | 0.93 | CCC1(n2nc(Nc3ccc(C(=O)N4CCSCC4)c(C)c3)c3c(=O)[nH]ccc32)CCN(C(=O)OC(C)(C)C)CC1 [Example 2-21, tert-butyl 4-ethyl-4-(3-(3-methyl-4-(thiomorpholine-4-carbonyl)phenylamino)-4-oxo-4,5-dihydropyrazolo[4,3-c]pyridin-1-yl) piperidine-1-carboxylate] |
